From patent US11046699B2, “Pyrazolo-pyrimidin-amino-cycloalkyl compounds and their therapeutic uses” (RAPT THERAPEUTICS, INC., priority 2018, dated 2021)
pIC50: −log10 of the molar value.

target: GCN2 (Homo sapiens, UniProt Q9P2K8); assay: GCN2 enzymatic endpoint assay: phosphorylation of GFP-eIF2α measured by TR-FRET (Lanthascreen); format: biochemical; settings: GCN2 biochemical IC50; 4 nM GCN2, 2 μM ATP, 80 nM GFP-eIF2α, 90 min RT; read-out: GCN2 activity
Procedure: The Enzymatic assay was run as an endpoint assay to quantify the activity of the serine/threonine GCN2 kinase by way of measuring phosphorylation of its natural substrate, eiF2α.
The enzymatic reaction was initiated by incubating with 2 μM ATP and 80 nM of GFP labeled eiF2a substrate at room temperature and then stopped after 90 minutes with EDTA. The amount of phosphorylated eIF2α is determined by TR-FRET (Lanthascreen). A terbium labeled antibody associates with the phosphorylated substrate resulting in an increased TR-FRET value. Activity was calculated as the ratio of the acceptor (fluorescein) signal at 520 nm wavelength to the donor (terbium) signal 495 nm. The amount of antibody that is bound to the tracer is directly proportional to the amount of phosphorylated substrate present, and in this manner, kinase activity can be detected and measured by an increase in the TR-FRET value.
Compound addition by D300
5 μL enzyme solution in assay buffer
5 μL substrate/ATP mixture in assay buffer
5 μL stop/detection mix in antibody dilution buffer

Sequence of GCN2 (Q9P2K8 whole entry): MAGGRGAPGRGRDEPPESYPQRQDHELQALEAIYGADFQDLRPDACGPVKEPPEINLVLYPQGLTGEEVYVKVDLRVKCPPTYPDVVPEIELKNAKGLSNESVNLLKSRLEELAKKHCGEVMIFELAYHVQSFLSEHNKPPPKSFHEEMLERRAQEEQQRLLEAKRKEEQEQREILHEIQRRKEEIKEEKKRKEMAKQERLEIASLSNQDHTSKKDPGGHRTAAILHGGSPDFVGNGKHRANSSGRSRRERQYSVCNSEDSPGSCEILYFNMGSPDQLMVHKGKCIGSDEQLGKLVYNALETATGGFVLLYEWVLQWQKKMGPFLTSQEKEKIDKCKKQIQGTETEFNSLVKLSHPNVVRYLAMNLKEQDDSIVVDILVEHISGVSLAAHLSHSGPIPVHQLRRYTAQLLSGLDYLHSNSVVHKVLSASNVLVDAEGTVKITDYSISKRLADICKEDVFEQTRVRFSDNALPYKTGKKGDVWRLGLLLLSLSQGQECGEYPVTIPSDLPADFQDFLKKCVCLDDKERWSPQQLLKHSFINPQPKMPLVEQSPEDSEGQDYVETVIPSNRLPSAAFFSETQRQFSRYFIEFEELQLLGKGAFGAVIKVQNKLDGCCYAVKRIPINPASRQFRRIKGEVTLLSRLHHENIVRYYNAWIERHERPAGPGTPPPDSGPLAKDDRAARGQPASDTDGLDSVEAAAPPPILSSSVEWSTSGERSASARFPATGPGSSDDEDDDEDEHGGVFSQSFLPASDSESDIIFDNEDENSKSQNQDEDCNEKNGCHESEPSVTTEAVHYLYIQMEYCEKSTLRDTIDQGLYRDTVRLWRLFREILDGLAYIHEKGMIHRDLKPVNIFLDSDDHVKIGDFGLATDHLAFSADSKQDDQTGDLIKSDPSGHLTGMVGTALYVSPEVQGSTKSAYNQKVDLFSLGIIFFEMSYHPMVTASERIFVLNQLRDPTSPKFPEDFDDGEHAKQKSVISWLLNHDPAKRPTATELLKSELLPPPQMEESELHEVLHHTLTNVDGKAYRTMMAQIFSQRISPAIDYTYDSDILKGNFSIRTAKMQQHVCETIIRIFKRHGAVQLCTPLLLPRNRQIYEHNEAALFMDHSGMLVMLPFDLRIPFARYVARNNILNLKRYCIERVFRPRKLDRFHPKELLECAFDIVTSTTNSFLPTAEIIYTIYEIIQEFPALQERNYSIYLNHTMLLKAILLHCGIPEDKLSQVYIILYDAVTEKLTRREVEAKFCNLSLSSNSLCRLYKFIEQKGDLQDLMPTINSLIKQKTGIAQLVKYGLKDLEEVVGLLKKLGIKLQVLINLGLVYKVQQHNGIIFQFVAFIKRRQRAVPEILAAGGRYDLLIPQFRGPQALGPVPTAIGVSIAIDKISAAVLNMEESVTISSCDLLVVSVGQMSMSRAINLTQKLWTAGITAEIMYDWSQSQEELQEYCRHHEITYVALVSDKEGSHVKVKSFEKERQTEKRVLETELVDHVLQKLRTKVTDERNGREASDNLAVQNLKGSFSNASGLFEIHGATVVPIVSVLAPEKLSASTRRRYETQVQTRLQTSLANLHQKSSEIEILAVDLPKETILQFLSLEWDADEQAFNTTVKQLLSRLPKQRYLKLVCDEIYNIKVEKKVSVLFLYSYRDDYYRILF

SMILES | pIC50
CNC(=O)[C@]1(C)CC[C@@H](Nc2ncc3c(Br)nn(-c4ccc(-c5nnc(C)o5)c(CO)c4)c3n2)C1 [Example 58, (1R,3R)-3-((3-bromo-1-(3-(hydroxymethyl)-4-(5-methyl-1,3,4-oxadiazol-2-yl)phenyl)-1H-pyrazolo[3,4-d]pyrimidin-6-yl)amino)-N,1-dimethylcyclopentane-1-carboxamide] | 6.70 to 7.60
CNC(=O)[C@]1(C)CC[C@@H](Nc2ncc3c(Br)nn(-c4ccc(-c5nnc(C)o5)c(C#N)c4)c3n2)C1 [Example 35, (1R,3R)-3-((3-bromo-1-(3-cyano-4-(5-methyl-1,3,4-oxadiazol-2-yl)phenyl)-1H-pyrazolo[3,4-d]pyrimidin-6-yl)amino)-N,1-dimethylcyclopentane-1-carboxamide; 2,2,2-trifluoroacetic acid] | > 7.60

same assay, conditions: tested as described in Example 77; compound and/or hydrochloride, dihydrochloride or trifluoroacetic acid salt; read-out: IC 50 Activity

SMILES | pIC50
CNC(=O)[C@]1(C)CC[C@@H](Nc2ncc3c(Br)nn(-c4ccc(-c5nnc(C)s5)c(CCN)c4)c3n2)C1 [(1R,3R)-3-[[1-[3-(2-aminoethyl)-4-(5-methyl-1,3,4-thiadiazol-2-yl)phenyl]-3-bromo-pyrazolo[3,4-d]pyrimidin-6-yl]amino]-N,1-dimethyl-cyclopentane-carboxamide] | 6.70 to 7.60
CCNC(=O)[C@@H]1CC[C@@H](Nc2ncc3c(Br)nn(-c4cc(F)c5ncccc5c4)c3n2)C1 [(1R,3R)-3-[[3-bromo-1-(8-fluoro-6-quinolyl)pyrazolo[3,4-d]pyrimidin-6-yl]amino]-N-ethyl-cyclopentanecarboxamide] | 6.70 to 7.60
C[C@@]1(C(=O)N2CCN3C(=O)COCC3C2)CC[C@@H](Nc2ncc3c(Br)nn(-c4cc(F)c5ncccc5c4)c3n2)C1 (stereo partly drawn) [8-[(1R,3R)-3-[[3-bromo-1-(8-fluoro-6-quinolyl)pyrazolo[3,4-d]pyrimidin-6-yl]amino]-1-methyl-cyclopentane-carbonyl]-6,7,9,9a-tetrahydro-1H-pyrazino[2,1-c][1,4]oxazin-4-one] | 6.70 to 7.60
CN(C)S(=O)(=O)[C@@H]1CC[C@@H](Nc2ncc3c(Br)nn(-c4ccc5ncccc5c4)c3n2)C1 [(1R,3R)-3-((3-bromo-1-(quinolin-6-yl)-1H-pyrazolo[3,4-d]pyrimidin-6-yl)amino)-N,N-dimethylcyclopentane-1-sulfonamide] | 6.70 to 7.60
O=C(NCCOC(F)(F)F)[C@@H]1CC[C@@H](Nc2ncc3c(Br)nn(-c4ccc5ncccc5c4)c3n2)C1 [(1R,3R)-3-((3-bromo-1-(quinolin-6-yl)-1H-pyrazolo[3,4-d]pyrimidin-6-yl)amino)-N-(2-(trifluoromethoxy)ethyl)cyclopentane-1-carboxamide] | 6.30 to 6.70
CNC(=O)[C@]1(C)CC[C@@H](Nc2ncc3c(Br)nn(-c4cc(CNCCOC)cc(OC(F)(F)F)c4)c3n2)C1 [(1R,3R)-3-[[3-bromo-1-[3-[(2-methoxy-ethylamino)methyl]-5-(trifluoromethoxy)phenyl]pyrazolo[3,4-d]pyrimidin-6-yl]amino]-N,1-dimethyl-cyclopentanecarboxamide] | 6.70 to 7.60
CNC(=O)[C@]1(C)CC[C@@H](Nc2ncc3c(Br)nn(-c4ccc(C5=NCCO5)cc4)c3n2)C1 [(1R,3R)-3-[[3-bromo-1-[4-(4,5-dihydro-oxazol-2-yl)phenyl]pyrazolo[3,4-d]pyrimidin-6-yl]amino]-N,1-dimethyl-cyclopentanecarboxamide] | 6.70 to 7.60
CNC(=O)[C@]1(C)CC[C@@H](Nc2ncc3c(Br)nn(-c4ccc(-c5ncco5)c([C@@H](C)C#N)c4)c3n2)C1 [(1R,3R)-3-[[3-bromo-1-[3-[(1R)-1-cyanoethyl]-4-oxazol-2-yl-phenyl]pyrazolo[3,4-d]pyrimidin-6-yl]amino]-N,1-dimethyl-cyclopentane-carboxamide] | 6.70 to 7.60
N#Cc1cc(-n2nc(Br)c3cnc(N[C@@H]4CC[C@@H](C(=O)NC5CCN(CC(F)(F)F)C5)C4)nc32)cc2cccnc12 (mixture of isomers) | 6.70 to 7.60
O=C([C@@H]1CC[C@@H](Nc2ncc3c(Br)nn(-c4cc(F)c5ncccc5c4)c3n2)C1)N1CCN2CCOC[C@@H]2C1 [((1R,3R)-3-((3-bromo-1-(8-fluoroquinolin-6-yl)-1H-pyrazolo[3,4-d]pyrimidin-6-yl)amino)cyclopentyl)((S)-hexahydropyrazino[2,1-c] [1,4]oxazin-8(1H)-yl)methanone] | 6.70 to 7.60
CNC(=O)[C@]1(C)CC[C@@H](Nc2ncc3c(Br)nn(-c4cc(C#N)cc(CNS(C)(=O)=O)c4)c3n2)C1 | 6.70 to 7.60
O=C([C@@H]1CC[C@@H](Nc2ncc3c(Br)nn(-c4cc(F)c5ncccc5c4)c3n2)C1)N1CCC(O)(C(=O)O)C1 (stereo partly drawn) [1-((1R,3R)-3-((3-bromo-1-(8-fluoroquinolin-6-yl)-1H-pyrazolo[3,4-d]pyrimidin-6-yl)amino)cyclopentane-1-carbonyl)-3-hydroxy-pyrrolidine-3-carboxylic acid] | 6.00 to 6.30
COCCNC(=O)[C@@H]1CC[C@@H](Nc2ncc3c(Br)nn(-c4ccc5ccncc5c4)c3n2)C1 [(1R,3R)-3-((3-bromo-1-(isoquinolin-7-yl)-1H-pyrazolo[3,4-d]pyrimidin-6-yl)amino)-N-(2-methoxyethyl)cyclopentane-1-carboxamide] | 6.70 to 7.60
CNC(=O)[C@]1(C)CC[C@@H](Nc2ncc3c(Br)nn(-c4cc(Cl)cc(CNS(C)(=O)=O)c4)c3n2)C1 [(1R,3R)-3-[[3-bromo-1-[3-chloro-5-(methanesulfonamidomethyl)phenyl]pyrazolo[3,4-d]pyrimidin-6-yl]amino]-N,1-dimethyl-cyclopentanecarboxamide] | 6.70 to 7.60
CNC(=O)[C@]1(C)CC[C@@H](Nc2ncc3c(Br)nn(-c4cc(NC(=O)CCN)c5ncccc5c4)c3n2)C1 [(1R,3R)-3-[[1-[8-(3-aminopropanoylamino)-6-quinolyl]-3-bromo-pyrazolo[3,4-d]pyrimidin-6-yl]amino]-N,1-dimethyl-cyclopentanecarboxamide] | > 7.60
CC(F)(F)CNC(=O)[C@@H]1CC[C@@H](Nc2ncc3c(Br)nn(-c4cc(C#N)c5ncccc5c4)c3n2)C1 [(1R,3R)-3-((3-bromo-1-(8-cyanoquinolin-6-yl)-1H-pyrazolo[3,4-d]pyrimidin-6-yl)amino)-N-(2,2-difluoropropyl)cyclopentane-1-carboxamide] | 6.70 to 7.60
CNC(=O)[C@]1(C)CC[C@@H](Nc2ncc3c(Br)nn(-c4ccc(-c5nnco5)cc4)c3n2)C1 [(1R,3R)-3-[[3-bromo-1-[4-(1,3,4-oxadiazol-2-yl)phenyl]pyrazolo[3,4-d]pyrimidin-6-yl]amino]-N,1-dimethyl-cyclopentane-carboxamide] | 6.70 to 7.60
O=C(NCc1nnn[nH]1)[C@@H]1CC[C@@H](Nc2ncc3c(Br)nn(-c4cc(F)c5ncccc5c4)c3n2)C1 [(1R,3R)-N-((1H-tetrazol-5-yl)methyl)-3-((3-bromo-1-(8-fluoroquinolin-6-yl)-1H-pyrazolo [3,4-d]pyrimidin-6-yl)amino)cyclopentane-1-carboxamide] | 6.70 to 7.60
CNC(=O)C1(C)CC[C@@H](Nc2ncc3c(Br)nn(-c4cc(F)cc(CO)c4)c3n2)C1 (stereo partly drawn) [(3R)-3-[[3-bromo-1-[3-fluoro-5-(hydroxymethyl)phenyl]pyrazolo[3,4-d]pyrimidin-6-yl]amino]-N,1-dimethyl-cyclopentanecarboxamide] | 6.70 to 7.60
CNC(=O)[C@]1(C)CC[C@@H](Nc2ncc3c(Br)nn(-c4ccc(-c5nncs5)cc4)c3n2)C1 | 6.70 to 7.60
COCCNS(=O)(=O)[C@@H]1CC[C@@H](Nc2ncc3c(Br)nn(-c4ccc5ncccc5c4)c3n2)C1 [(1R,3R)-3-((3-bromo-1-(quinolin-6-yl)-1H-pyrazolo[3,4-d]pyrimidin-6-yl)amino)-N-(2-methoxyethyl)cyclopentane-1-sulfonamide] | 6.70 to 7.60
O=C([C@@H]1CC[C@@H](Nc2ncc3c(Br)nn(-c4ccc5ncccc5c4)c3n2)C1)N1CCC(O)(CO)CC1 [((1R,3R)-3-((3-bromo-1-(quinolin-6-yl)-1H-pyrazolo[3,4-d]pyrimidin-6-yl)amino)cyclo-pentyl)(4-hydroxy-4-(hydroxymethyl)piperidin-1-yl)methanone] | 6.70 to 7.60
N#Cc1cc(-n2nc(Br)c3cnc(N[C@@H]4CC[C@@H](C(=O)N[C@@H]5CCNC5)C4)nc32)cc2cccnc12 [(1R,3R)-3-((3-bromo-1-(8-cyanoquinolin-6-yl)-1H-pyrazolo[3,4-d]pyrimidin-6-yl)amino)-N-((R)-pyrrolidin-3-yl)cyclopentane-1-carboxamide] | > 7.60
CNC(=O)[C@]1(C)CC[C@@H](Nc2ncc3c(Br)nn(-c4ccc5c(c4)OCC(=O)N5CC(F)(F)F)c3n2)C1 [(1R,3R)-3-[[3-bromo-1-[3-oxo-4-(2,2,2-trifluoroethyl)-1,4-benzoxazin-7-yl]pyrazolo [3,4-d]pyrimidin-6-yl]amino]-N,1-dimethyl-cyclopentanecarboxamide] | 6.70 to 7.60
CCNC(=O)[C@]1(C)CC[C@@H](Nc2ncc3c(Br)nn(-c4cc(F)c5ncccc5c4)c3n2)C1 [(1R,3R)-3-[[3-bromo-1-(8-fluoro-6-quinolyl)pyrazolo[3,4-d]pyrimidin-6-yl]amino]-N-ethyl-1-methyl-cyclopentanecarboxamide] | > 7.60
COC(=O)C1CN(C(=O)[C@@H]2CC[C@@H](Nc3ncc4c(Br)nn(-c5ccc6ncccc6c5)c4n3)C2)CCN1 (mixture of isomers) | 6.70 to 7.60
CNC(=O)[C@]1(C)CC[C@@H](Nc2ncc3c(Br)nn(-c4ccc(-c5nnc(C)o5)c(CCO)c4)c3n2)C1 [(1R,3R)-3-[[3-bromo-1-[3-(2-hydroxyethyl)-4-(5-methyl-1,3,4-oxadiazol-2-yl)phenyl]pyrazolo[3,4-d]pyrimidin-6-yl]amino]-N,1-dimethyl-cyclopentanecarboxamide] | 6.70 to 7.60
